The nature of data set [1]: XTT assay, cytotoxicity (cellular growth inhibition) in CEM-SS cells. Conditions: human. The data set is classed as cell-based.
Text: (§1) One exemplary means to determine antiviral activity is with CEM-SS cells and virus (e.g., HIV-1RF) (MOI=0.01) using the XTT (2,3-bis[2-methoxy-4-nitro-5-sulfophenyl]-5-[(phenylamino)carbonyl]-2H-tetrazolium hydroxide) cytoprotection assay, as described by Rice (1993) PNAS 90:9721-9724, and Rice (1997) Antimicrob. Agents Chemother. […] Briefly, cells are infected with HIV-1RF (or other virus to be tested) in the presence of various dilutions of test compounds or control compounds. The cultures are incubated for seven days. […] The cell death is measured by XTT dye reduction. XTT is a soluble tetrazolium dye that measures mitochondrial energy output, similar to MTT. […] Individual assays are done in duplicate using a sister plate method.
as §1, with “{2,3-bis[2-methoxy-4-nitro-5-sulfophenyl]-5- -[(phenylamino)carbonyl]-2H-tetrazolium hydroxide}” for “(2,3-bis[2-methoxy-4-nitro-5-sulfophenyl]-5-[(phenylamino)carbonyl]-2H-tetrazolium hydroxide)”, “Proc. Natl. Acad. Sci. USA 90: 9721-9724,” for “PNAS 90:9721-9724,”, “Agents &” for “Agents”, “and controls.” for “or control compounds.”, “method. […] Compound numbers therein refer to the numbers used in FIG. 1.” for “method.”
In general terms: Tetrazolium assays rely on reduction of a dye to a coloured formazan, in cell work by metabolically active cells.

For data set [2], the system named is HIV-1RF. Nature of the data set: XTT cytoprotection assay, CEM-SS cells infected with HIV-1RF. The format is cell-based. Conditions: for EC50: read-out: EC50 (50% cytoprotection).
Text: as §1
as §1, with “{2,3-bis[2-methoxy-4-nitro-5-sulfophenyl]-5- -[(phenylamino)carbonyl]-2H-tetrazolium hydroxide}” for “(2,3-bis[2-methoxy-4-nitro-5-sulfophenyl]-5-[(phenylamino)carbonyl]-2H-tetrazolium hydroxide)”, “Proc. Natl. Acad. Sci. USA 90: 9721-9724,” for “PNAS 90:9721-9724,”, “Agents &” for “Agents”, “and controls.” for “or control compounds.”, “method. […] Compound numbers therein refer to the numbers used in FIG. 1.” for “method.”

[3] abbreviates: Human immunodeficiency virus 1, 168 h, HIV-1RF, CEM-SS cells, seven days, XTT.

Read-outs that look alike come from different tables or passages of the source.

A word on the IC50: it is the point on the concentration scale where inhibition reaches its midpoint. For orientation: EC50 means the concentration giving half of the maximal effect. The molecule `Cc1cccc(C(=O)Sc2ccccc2C(=O)NCCC(N)=O)c1` [Compound 20] yielded an IC50 at 7 days in data set [1] of 135 µM. For the same molecule, in data set [2] (HIV-1RF, CEM-SS cells), the “Therapeutic Index” value was determined as 38. Besides, the EC50 in data set [2] (setting [3]) was found to be 3.6 µM.
For `NC(=O)CCNC(=O)c1ccccc1SC(=O)OCCBr` [Compound 102], in that order: > 316 µM, 60.6 and 5.21 µM.
Turning to `NC(=O)C1CN1C(=O)c1ccccc1SC(=O)NC1CCCC1` (stereo not shown) [Compound 132], in data set [2] (HIV-1RF, CEM-SS cells, seven days, XTT), the EC50 came out at 0.81 µM.
In data set [1], `NC(=O)CNC(=O)c1ccccc1SC(=O)NCCCCl` [Compound 85] yielded an IC50 at 7 days of 110 µM. Further, the “Therapeutic Index” value in data set [2] (HIV-1RF, CEM-SS cells) was determined as 153. In addition, the EC50 in data set [2] (setting [3]) was found to be 0.72 µM.
For `CCNC(=O)Sc1ccccc1C(=O)NCCC(N)=O` [Compound 113], in that order: 103 µM, 148 and 0.69 µM.
Molecule `CC(C)(C)C(=O)Sc1cccc(C(=O)NCCC(N)=O)c1` [Compound 17] came in with an IC50 at 7 days in data set [1] of 112 µM. Moreover, the EC50 in data set [2] (setting [3]) is > 100 µM.
`CSC(=N)Sc1ccccc1C(=O)N[C@@H](C)C(N)=O` [Compound 136] came in with an IC50 at 7 days in data set [1] of 20 µM. The “Therapeutic Index” value in data set [2] (HIV-1RF, CEM-SS cells) stood at 28.6. Besides, in data set [2] (setting [3]), the EC50 is 0.7 µM.
The molecule `NC(=O)CCNC(=O)c1ccccc1SC(=O)NCCBr` [Compound 111] returned an IC50 at 7 days in data set [1] of 4.9 µM. Further, the “Therapeutic Index” value in data set [2] (HIV-1RF, CEM-SS cells) is recorded as 10. Further, the concentration giving a half-maximal response (EC50) in data set [2] (Human immunodeficiency virus 1, CEM-SS, 168 h) is 0.48 µM.
In the case of `CC(C)COC(=O)Sc1ccc(Cl)cc1C(=O)NCCC(N)=O` [Compound 141], inhibition in data set [1] was half-maximal at 20 µM (IC50 at 7 days). Further, the “Therapeutic Index” value in data set [2] (HIV-1RF, CEM-SS cells) was found to be 17.7. Also, the half-maximal effective concentration (EC50) in data set [2] (setting [3]) is 1.13 µM.
In data set [1], `COc1cccc(C(=O)Sc2ccccc2C(=O)NCCC(N)=O)c1` [Compound 14] returned a half-inhibitory concentration (IC50) at 7 days of 666 µM. In addition, the “Therapeutic Index” value in data set [2] (HIV-1RF, CEM-SS cells) is given as 251. Further, in data set [2] (setting [3]), the half-maximal effective concentration (EC50) came out at 2.6 µM.
Molecule `CCOC(=O)CNC(=O)Sc1ccccc1C(=O)N[C@@H](C)C(N)=O` [Compound 116] had an IC50 at 7 days in data set [1] of 77.6 µM. In addition, in data set [2] (HIV-1RF, CEM-SS cells), the “Therapeutic Index” value is given as 147. In addition, in data set [2] (setting [3]), the concentration giving a half-maximal response (EC50) came out at 0.53 µM.
`NC(=O)CCNC(=O)c1ccccc1SC(=O)c1ccccc1` [Compound 8]: the IC50 at 7 days in data set [1] turned out to be 676 µM. Also, the “Therapeutic Index” value in data set [2] (HIV-1RF, CEM-SS cells) is 205. For the same molecule, the EC50 in data set [2] (setting [3]) came to 3.3 µM.
For `CCCCNC(=O)Sc1ccccc1C(=O)NCCS(N)(=O)=O` [Compound 130], in that order: 37 µM, 0.12 and 304 µM.
For `NS(=O)(=O)c1ccc(CNC(=O)c2ccccc2SC(=O)NCCCCl)cc1` [Compound 88], in that order: 9 µM, 19 and 0.48 µM.
For `CC(C)(C)NC(=O)Sc1ccc(Cl)cc1C(=O)NCCC(N)=O` [Compound 140], in that order: 11.3 µM, 7.1 and 1.6 µM.
For `C[C@@H](NC(=O)c1ccccc1SC(=O)OCCBr)C(N)=O` [Compound 103], inhibition in data set [1] was half-maximal at 254 µM (IC50 at 7 days). Moreover, the “Therapeutic Index” value in data set [2] (HIV-1RF, CEM-SS cells) amounted to 76. Further, the EC50 in data set [2] (setting [3]) amounted to 3.34 µM.
In data set [1], `CCNC(=O)Sc1ccccc1C(=O)N[C@H](C)C(N)=O` [Compound 114] returned an IC50 at 7 days of 86 µM. For the same molecule, in data set [2] (HIV-1RF, CEM-SS cells), the “Therapeutic Index” value was determined as 203. In addition, in data set [2] (setting [3]), the EC50 was 0.42 µM.
For `CCCNC(=O)Sc1ccccc1C(=O)NCCC(N)=O` [Compound 97], the IC50 at 7 days in data set [1] came out at 29 µM. Also, in data set [2] (HIV-1RF, CEM-SS cells), the “Therapeutic Index” value was determined as 53. For the same molecule, the EC50 in data set [2] (setting [3]) is 0.55 µM.
Taken in the same sequence, the figures for `CCC(C)C(NC(=O)c1ccccc1SC(=O)OCCCCCl)C(N)=O` (stereo not shown) [Compound 83] were 128 µM, 59 and 2.16 µM.
In data set [1], `C[C@@H](NC(=O)c1ccccc1SC(=O)NCCCCl)C(N)=O` [Compound 87] yielded an IC50 at 7 days of 11.4 µM. In addition, the “Therapeutic Index” value in data set [2] (HIV-1RF, CEM-SS cells) is recorded as 16. Moreover, the concentration giving a half-maximal response (EC50) in data set [2] (setting [3]) came to 0.71 µM.
Turning to `Cc1cc(C)c(C(=O)Sc2ccccc2C(=O)NCCC(N)=O)c(C)c1` [Compound 24], the IC50 at 7 days in data set [1] is > 200 µM.

(Values after patent US7528274B2, “Acylthiols and component thiol compositions as anti-HIV and anti-retroviral agents” (The United States of America as represented by the …, priority 2001, dated 2009).)
